# Reference: ChEMBL document CHEMBL5543075, “Phenoxytacrine derivatives: Low-toxicity neuroprotectants exerting affinity to ifenprodil-binding site and cholinesterase inhibition” (Eur J Med Chem, 2024)
# Experiments:
# [1] = Cytotoxicity against CHO-K1 cells incubated for 24 hrs by MTT assay; assay type: toxicity, cell-based, Cricetulus griseus; details: Chinese hamster
# [2] = biological target: T1, Glutamate NMDA receptor; GRIN1/GRIN2B (Homo sapiens, UniProt Q05586+Q13224); assay: Inhibition of recombinant human GluN1/GluN2B receptor expressed in HEK293 cells assessed as reduction in glutamate induced current at 1 uM at -60 mV holding potential by electrophysiology assay relative to control; assay type: cell-based
# [3] = biological target: T1, Glutamate NMDA receptor; GRIN1/GRIN2B; assay: Inhibition of recombinant human GluN1/GluN2B receptor expressed in HEK293 cells assessed as reduction in glutamate induced current at -20 mV holding potential by electrophysiology assay; assay type: cell-based
compound,measurement,setting,value
Nc1c2c(nc3ccc(Oc4ccccc4)cc13)CCCC2,IC50 at 24 h,[1],31 µM
same,inhibition,[2],33.1%
same,IC50,[3],~2 µM
